Measurements taken from patent US8815900B2, “Compounds and compositions for reducing lipid levels” (CVI Pharmaceuticals Limited, priority 2007, dated 2014).
Counter-ions that a name gives are not always drawn. One block for each compound: values may come before it.

What was measured:
[1] = tested on: LDLR mRNA expression in HepG2 cells; assay: LDLR mRNA expression in HepG2 cells, semi-quantitative RT-PCR; type: cell-based, Human; conditions: 8 hours, indicated doses, corrected by GAPDH mRNA (FIG. 3)
Protocol: HepG2 cells obtained from American Tissue Culture Collection (Manassas, Va., USA) were seeded in 6-well culture plates at a density of 0.8×10^6 cells/well cultured in EMEM containing 0.5% FBS and were treated with each purified compound at indicated doses for 8 hours. Total RNA was isolated, and 2 μg per sample was reverse transcribed with random primers using M-MLV (Promega) at 37° C. for 1 hour. PCR was carried out at 94° C. for 30 sec, 60° C. for 30 sec, and 72° C. for 30 sec with initial activation of the enzyme at 94° C. for 1 minute. Thirty cycles were performed for LDLR and GAPDH. PCR was performed using primers HLDLR-up and HLDLR-lo for LDLR and primers HGAPDH-up and HGAPDH-lo for GAPDH. The PCR products were separated on a 1% agarose gel and the band intensity was quantitated. LDLR mRNA levels were corrected by measuring GAPDH mRNA levels.
After the treatment, a portion of cells was harvested for total RNA, and another portion of cells was used for TG measurement. The LDLR mRNA levels were assessed by semi quantitative RT-PCR, and the cellular TG content was determined as described above.

[2] = tested on: LDLR ligand uptake activity in HepG2 cells; assay: DiI-LDL uptake (LDLR ligand uptake activity) in HepG2 cells; type: cell-based, Human; conditions: 20 hours; further: key: +: slightly increased fluorescent intensity over control; ++: modestly increased fluorescent intensity over control; +++: strongly increased fluorescent intensity over control
Protocol: HepG2 cells (2×10^5 cells/well) in 24-well culture plates were treated with various compounds at indicated concentrations for 20 hours. The fluorescent 1,1′-dioctadecyl-3,3,3′,3′-tetramethylindocarbocyanin perchlorate (DiI-LDL) (Biomedical Technologies, Stoughton, Mass.) at a concentration of 2 μg/mL was added to cells at the end of treatment. After 4 hours, the medium was removed, cells were washed with cold PBS, and were examined immediately under a fluorescent microscope (Nikon) at 200× amplification. The fluorescent intensity in compound-treated cells was compared to that in untreated control cells. […] In these experiments berberine chloride was used for comparison.

[3] = tested on: hypercholesterolemic hamsters; assay: In vivo lipid lowering of (14R)-THP in hamsters on high cholesterol diet; set-up: species or system Golden Syrian male hamsters; conditions: 12 mg/kg daily i.p., 34 days
Text: To determine whether the induction of hepatic LDLR expression by corydalis-derived compounds would result in total cholesterol (TC) and LDL-cholesterol (LDL-c) reductions in plasma, hypercholesterolemic hamsters were used as an animal model. In one experiment, 10 Golden Syrian male hamsters under a high cholesterol (HC) diet were divided into 2 groups.

[4] = tested on: LDLR mRNA expression in HepG2 cells; assay: LDLR mRNA expression in HepG2 cells, quantitative real-time RT-PCR; type: cell-based, Human; conditions: 24 hours; for Activity on LDLR mRNA expression (Fold of control): dose less than or equal to 10 μM
Protocol: In yet another experiment, HepG2 cells were treated with various compounds for 24 hours at the indicated doses. Total RNA was isolated and 2 μg was used to generate cDNA in a reaction containing random primers and M-MLV at 37° C. for 1 hour in a volume of […] Real-time PCR was performed on the cDNA using MCEP REALPLEX 2 SYSTEM (Eppendorf) and Universal MasterMix (Applied Biosystems). Human LDLR and GAPDH Pre-Developed TaqMan Assay Reagents (Applied Biosystems) were used to assess the levels of mRNA expressions in HepG2. The levels of LDLR mRNA were normalized to that of GAPDH. Each RNA samples was assayed in triplicate. The abundance of LDLR mRNA in untreated cells was defined as 1, and the amounts of LDLR mRNA from compound-treated cells were plotted relative to that value in FIG. 13. The data shown are mean±s.d.
Activities of some compounds of Formulas I, II, III, and IV on LDLR mRNA expression were determined. HepG2 cells were treated with new compounds individually at a dose less than or equal to 10 μM for 24 hours. Total RNA was harvested for quantitative real-time RT-PCR analysis using the method described in Example 16B. […] In these experiments, berberine chloride was included for comparison.
Quantitative real-time RT-PCR was conducted, and triplicate was assayed in each RNA sample. The data are mean value of triplicates.
Total RNA was harvested for quantitative real-time RT-PCR analysis using method described in Examples 16B.

[5] = tested on: Wister male rats under a high fat and high cholesterol diet; assay: Lipid lowering and body weight effects of (14R,13S)-CRDL hydrochloride salt in Wister rats; type: in vivo
Protocol: Male Wister rats were used as another animal model to examine the in vivo effects of (14R,13S)-CRDL in plasma lipid levels.
In one experiment, 18 Wister male rats under a high fat and high cholesterol diet were divided into 2 groups. One group was given (14R,13S)-CRDL hydrochloride salt orally at a daily dose of 75 mg/kg by an orogastric tube for 4 weeks, and the control group received daily treatment of equal amount of vehicle (0.1 M sodium phosphate, pH 3.5). Serum lipid levels were measured weekly.
At the end of treatment, Rats were sacrificed and blood and sera were collected to measure several critical parameters for liver function and kidney function. […] Kidney function and blood glucose level were not changed by the treatment (FIG. 11E).
The food intake and body weight gains were measured every week during the 4-week treatment period. […] In the first week, the amount of food consumed was decreased in CRDL-treated group. […] The ability of CRDL to activate AMPK signaling pathway to increase energy expenditure and to reduce fat accumulation likely contributes to this weight reducing effect.

[6] = Stability of compound 69 under cell culture conditions (LC-MS of medium); type: in vitro ADME; conditions: HepG2 culture medium, 20 μM
Protocol: HepG2 cells were cultured in 6-well cell culture plate in EMEM containing 0.5% FBS overnight. Compound 69+ was added to the culture medium to a final concentration of 20 μM. Medium was collected at 0 (control), 4, 8, or 24 hours after the compound addition.
The collected media were analyzed by LC-MS on a Thermo Fisher Scientific Surveyor HPLC system and LCQ ion trap MS with electrospray ionization source. A 50×2.1 mm Hypersil Gold C18 3 um column was used with a flow rate of 200 uL/min. The method conditions were 98% A (0.1% formic acid in water)/2% B (0.1% formic acid in acetonitrile) then a gradient to 95% B in 10 minutes. The injection volume was 10 uL.

[7] = HC diet, compared to untreated control group
[8] = (14R,13S)-CRDL hydrochloride salt orally 75 mg/kg daily, 4 weeks
[9] = end of 4-week treatment, 75 mg/kg daily orally

Compound: COc1cc2c(cc1O)CCN1Cc3c(ccc(OC)c3OC)CC21 (stereo not drawn) [14R-(+)-CRPM, 14R-(+)-corypalmine]
LDLR mRNA expression [1]: potent and dose-dependent effects | Activity on DiI-LDL uptake ([2]; A, compound dose ≦ 10 μM): ++

gains of body weight during the treatment period ([3]; vs control group): very similar
Compound: COc1cc2c(cc1OC)[C@H]1Cc3ccc(OC)c(OC)c3CN1CC2 [14R-(+)-THP, 14R-(+)-tetrahydropalmatine]
adverse effects during the treatment period [3]: No adverse effects were observed | reduction of plasma TC [3, 7]: 31.6% | reduction of plasma TG [3, 7]: 35.93% | reduction of plasma non-HDL-c [3, 7]: 35.95% | LDLR mRNA expression [1]: potent and dose-dependent effects | LDLR mRNA expression, combined with statins ([4]; added to low dose simvastatin or fluvastatin (FIG. 17)): further improved the stimulatory effects of statins | Activity on DiI-LDL uptake ([2]; B, compound dose ≦ 40 μM): ++

Compound: COc1cc2c(cc1OC)[C@H]1[C@@H](C)c3ccc(OC)c(OC)c3CN1CC2 [Compound 6, (13S,13aR)-2,3,9,10-tetramethoxy-13-methyl-5,6,7,8,13,13a-hexahydroiso-quinolino[2,1-b]isoquinoline hydrochloride]
LDL-c level, % of control [5, 8]: 25.6% | LDL-c level, % of day 0 [5, 8]: 22.4% | TC, % compared to the control group [5, 8]: 33.8% | TC, % of the pretreatment level [5, 8]: 33.0% | TG level, % of the control [5, 8]: 29% | TG level, % of the pretreatment level (day 0) [5, 8]: 27% | blood glucose level [5, 9]: not changed | kidney function (BUN, CREA) [5, 9]: not changed

Compound: COc1ccc2c(c1O)CN1CCc3cc4c(cc3C1C2)OCO4 (stereo not shown) [Compound 34, 10-methoxy-5,6,7,8,13,13a-hexahydro-2H-1,3-dioxolano[4,5-g]isoquinolino[3,2-a]isoquinolin-9-ol]
Activity on LDLR mRNA expression (Fold of control) [4]: 1.76 ± 0.17 Fold of control | Activity on DiI-LDL uptake ([2]; A, compound dose ≦ 10 μM): ++

Compound: COc1ccc2c(c1OC(=O)NC(C)C)CN1CCc3cc4c(cc3C1C2)OCO4 (stereo not shown) [Compound 41, (10-methoxy (5,6,7,8,13,13a-hexahydro-2H-1,3-dioxolano[4,5-g]isoquinolino[3,2-a]isoquinolin-9-yloxy))-N-(methylethyl) carboxamide]
Activity on LDLR mRNA expression (Fold of control) [4]: 1.60 ± 0.03 Fold of control | Activity on DiI-LDL uptake ([2]; A, compound dose ≦ 10 μM): ++

Compound: COc1ccc2c(c1OC(=O)N(C)C)CN1CCc3cc4c(cc3C1C2)OCO4 (stereo not shown) [Compound 43, (10-methoxy (5,6,7,8,13,13a-hexahydro-2H-1,3-dioxolano[4,5-g]isoquinolino[3,2-a]isoquinolin-9-yloxy))-N,N-dimethylcarboxamide]
Activity on LDLR mRNA expression (Fold of control) [4]: 1.95 ± 0.18 Fold of control | Activity on DiI-LDL uptake ([2]; A, compound dose ≦ 10 μM): ++

Compound: COc1ccc2c(c1OC(=O)Nc1ccc(OC(F)(F)F)cc1)CN1CCc3cc4c(cc3C1C2)OCO4 (stereo not shown) [Compound 44, (10-methoxy (5,6,7,8,13,13a-hexahydro-2H-1,3-dioxolano[4,5-g]isoquinolino[3,2-a]isoquinolin-9-yloxy))-N-[4-(trifluoromethoxy)phenyl]car-boxamide]
Activity on LDLR mRNA expression (Fold of control) [4]: 2.20 ± 0.06 Fold of control | Activity on DiI-LDL uptake ([2]; A, compound dose ≦ 10 μM): ++

Compound: COc1cc(NC(=O)Oc2c(OC)ccc3c2CN2CCc4cc5c(cc4C2C3)OCO5)cc(OC)c1 (stereo not shown) [Compound 45, N-(3,5-dimethoxyphenyl) (10-methoxy (5,6,7,8,13,13a-hexahydro-2H-1,3-dioxolano[4,5-g]isoquinolino[3,2-a]isoquinolin-9-yloxy)) carboxamide]
Activity on LDLR mRNA expression (Fold of control) [4]: 2.09 ± 0.11 Fold of control | Activity on DiI-LDL uptake ([2]; A, compound dose ≦ 10 μM): ++

Compound: COc1ccc2c(c1OC(=O)Nc1cccc(C)c1)CN1CCc3cc4c(cc3C1C2)OCO4 (stereo not shown) [Compound 46, (10-methoxy (5,6,7,8,13,13a-hexahydro-2H-1,3-dioxolano[4,5-g]isoquinolino[3,2-a]isoquinolin-9-yloxy))-N-(3-methylphenyl) carboxamide]
Activity on LDLR mRNA expression (Fold of control) [4]: 1.80 ± 0.16 Fold of control | Activity on DiI-LDL uptake ([2]; A, compound dose ≦ 10 μM): ++

Compound: CCOC(=O)Oc1c(OC)ccc2c1CN1CCc3cc4c(cc3C1C2)OCO4 (stereo not shown) [Compound 48, 10-methoxy-5,6,7,8,13,13a-hexahydro-2H-1,3-dioxolano[4,5-g]isoquinolino[3,2-a]isoquinolin-9-yl ethoxyformate]
Activity on LDLR mRNA expression (Fold of control) [4]: 1.45 ± 0.15 Fold of control

Compound: COc1ccc2c(c1OC(=O)Nc1ccccc1)CN1CCc3cc4c(cc3C1C2)OCO4 (stereo not shown) [Compound 61, (10-methoxy (5,6,7,8,13,13a-hexahydro-2H-1,3-dioxolano[4,5-g]isoquinolino[3,2-a]isoquinolin-9-yloxy))-N-benzamide]
Activity on LDLR mRNA expression (Fold of control) [4]: 1.33 ± 0.53 Fold of control

Compound: COc1ccc2c(c1OS(=O)(=O)c1ccccc1)CN1CCc3cc4c(cc3C1C2)OCO4 (stereo not shown) [Compound 69, 9-benzene-sulfonyloxy-10-methoxy-5,8,13,13a-tetrahydro-6H-[1,3]dioxolo[4,5-g]isoquino[3,2-a] isoquinoline]
stability under cell culture conditions ([6]; up to 24 hours): fairly stable | Peak Area m/z 466.1 ([6]; 0 hours (control)): 2.38e8 | Peak Area m/z 466.1 ([6]; 4 hours): 9.67e7 | Peak Area m/z 466.1 ([6]; 8 hours): 9.22e7 | Peak Area m/z 466.1 ([6]; 24 hours): 7.03e7

Compound: CN1CCc2cc3c(cc2[C@H]1[C@@H]1O[C@H](O)c2c1ccc1c2OCO1)OCO3 [d-(+)-EGN, (+)-egenine]
Activity on DiI-LDL uptake ([2]; A, compound dose ≦ 10 μM): +

Compound: (+)-corlumidin [(+)-CLMD]
LDLR mRNA expression [1]: potent and dose-dependent effects | Activity on DiI-LDL uptake ([2]; B, compound dose ≦ 40 μM): +
